{"source": "patent US20070178494A1", "about": "“Methods for prediction and prognosis of cancer, and monitoring cancer therapy” (priority 2005, published 2007)", "key": {"VEGF": {"test_system": "VEGF", "test": "ELISA of plasma VEGF pre- and post-treatment, Phase III TARGETs study", "type": "in vivo, human", "details": "patients with advanced renal cell cancer, after 3 weeks of treatment, p=3.2E-5"}, "[1]": {"test_system": "advanced renal cell cancer", "test": "Progression-free survival by baseline VEGF level, Phase III TARGETs study", "type": "in vivo, human", "details": "patients receiving sorafenib", "procedure": "All analyses were carried out under IRB-approved protocols.\nMeasures of patient outcome found useful were time to death (TTD) and progression-free survival (PFS) using a Cox regression analysis. Baseline levels of VEGF were determined and changes in the baseline level were determined at week 18 of treatment. The effects observed were adjusted for age, gender, ECOG status or Motzer score. These adjustments were minimal."}}, "data": [{"smiles": "CNC(=O)c1cc(Oc2ccc(NC(=O)Nc3ccc(Cl)c(C(F)(F)F)c3)cc2)ccn1", "note": "[sorafenib]", "values": [{"measurement": "change of VEGF levels from baseline", "setting": "VEGF", "result": "increased significantly"}, {"measurement": "difference in PFS between patients with high (>250 pg/mL) or low (<250 pg/mL) baseline VEGF levels", "setting": "[1]", "result": "no significant difference"}]}]}
